Measured values reported in patent publication US11746102B2, “Polymorphs of selinexor” (Karyopharm Therapeutics Inc., priority 2014, dated 2023).

Experiment: Solubility assessment (visual) of selinexor in solvents and solvent mixtures
Assay type: physicochemical
Details: any of the MTBE:heptane mixtures investigated

## O=C(/C=C\n1cnc(-c2cc(C(F)(F)F)cc(C(F)(F)F)c2)n1)NNc1cnccn1 [Selinexor, (Z)-3-(3-(3,5-bis(trifluoromethyl)phenyl)-1H-1,2,4-triazol-1-yl)-N′-(pyrazin-2-yl)acrylohydrazide]
  Solubility: > 100 volumes
